# B1: Angiopoietin-1: Angiopoietin-1 (product of R&D Systems, Inc.) as a positive control (protein, UniProt Q15389 16-498, looked up)
# Angiopoietin-1: HIGCSNQRRSPENSGRRYNRIQHGQCAYTFILPEHDGNCRESTTDQYNTNALQRDAPHVEPDFSSQKLQHLEHVMENYTQWLQKLENYIVENMKSEMAQIQQNAVQNHTATMLEIGTSLLSQTAEQTRKLTDVETQVLNQTSRLEIQLLENSLSTYKLEKQLLQQTNEILKIHEKNSLLEHKILEMEGKHKEELDTLKEEKENLQGLVTRQTYIIQELEKQLNRATTNNSVLQKQQLELMDTVHNLVNLCTKEGVLLKGGKREEEKPFRDCADVYQAGFNKSGIYTIYINNMPEPKKVFCNMDVNGGGWTVIQHREDGSLDFQRGWKEYKMGFGNPSGEYWLGNEFIFAITSQRQYMLRIELMDWEGNRAYSQYDRFHIGNEKQNYRLYLKGHTGTAGKQSSLILHGADFSTKDADNDNCMCKCALMLTGGWWFDACGPSNLNGMFYTAGQNHGKLNGIKWHYFKGPSYSLRSTTMMIRPLDF
# Key:
# [1] = tested on: human normal umbilical vein vascular endothelial cells co-cultured with human normal dermal fibroblasts; test: Angiogenesis inhibitory effect test (angiogenesis kit, number of luminal branching, VEGF-A); type: cell-based; conditions: VEGF-A (+) 10 ng/mL
# Procedure: The pharmacological effect, i.e., angiogenesis inhibitory effect of the hawthorn extract was evaluated by measuring a decrease of the number of vascular branching by means of image analysis as follows. At first, human normal umbilical vein vascular endothelial cells were co-cultured with human normal dermal fibroblasts at a constant ratio using the angiogenesis kit (product of KURABO INDUSTRIES LTD.) to a proliferative state at the early stage of lumen formation. The test sample, the hawthorn extract (fruits) (HAWTHORN EXTRACT POWDER MF, product of MARUZEN PHARMACEUTICALS CO., LTD.), was added to media so as to have concentrations described in Table 2 in the presence of 10 ng/mL of vascular endothelial cell growth factor-A (VEGF-A) (product of KURABO INDUSTRIES LTD.), followed by incubation at 37° C. and 5% CO2. […] The CD31 (PECAM-1) in HUVEC cells was stained with the lumen staining kit (CD31, product of KURABO INDUSTRIES LTD.) The stained cells in the wells were photographed and counted for the number of luminal branching. Based on the thus-obtained number of luminal branching, the angiogenesis inhibitory effect was evaluated.
# [2] = target: T1, Tie2 (Homo sapiens, UniProt Q02763); test: Tie2 activating effect (immunoassay) test in HUVECs; type: cell-based
# T1 construct: endogenous in cells; host or cells: HUVEC (human umbilical vein endothelial cells)
# T1 sequence (Q02763 23-1124): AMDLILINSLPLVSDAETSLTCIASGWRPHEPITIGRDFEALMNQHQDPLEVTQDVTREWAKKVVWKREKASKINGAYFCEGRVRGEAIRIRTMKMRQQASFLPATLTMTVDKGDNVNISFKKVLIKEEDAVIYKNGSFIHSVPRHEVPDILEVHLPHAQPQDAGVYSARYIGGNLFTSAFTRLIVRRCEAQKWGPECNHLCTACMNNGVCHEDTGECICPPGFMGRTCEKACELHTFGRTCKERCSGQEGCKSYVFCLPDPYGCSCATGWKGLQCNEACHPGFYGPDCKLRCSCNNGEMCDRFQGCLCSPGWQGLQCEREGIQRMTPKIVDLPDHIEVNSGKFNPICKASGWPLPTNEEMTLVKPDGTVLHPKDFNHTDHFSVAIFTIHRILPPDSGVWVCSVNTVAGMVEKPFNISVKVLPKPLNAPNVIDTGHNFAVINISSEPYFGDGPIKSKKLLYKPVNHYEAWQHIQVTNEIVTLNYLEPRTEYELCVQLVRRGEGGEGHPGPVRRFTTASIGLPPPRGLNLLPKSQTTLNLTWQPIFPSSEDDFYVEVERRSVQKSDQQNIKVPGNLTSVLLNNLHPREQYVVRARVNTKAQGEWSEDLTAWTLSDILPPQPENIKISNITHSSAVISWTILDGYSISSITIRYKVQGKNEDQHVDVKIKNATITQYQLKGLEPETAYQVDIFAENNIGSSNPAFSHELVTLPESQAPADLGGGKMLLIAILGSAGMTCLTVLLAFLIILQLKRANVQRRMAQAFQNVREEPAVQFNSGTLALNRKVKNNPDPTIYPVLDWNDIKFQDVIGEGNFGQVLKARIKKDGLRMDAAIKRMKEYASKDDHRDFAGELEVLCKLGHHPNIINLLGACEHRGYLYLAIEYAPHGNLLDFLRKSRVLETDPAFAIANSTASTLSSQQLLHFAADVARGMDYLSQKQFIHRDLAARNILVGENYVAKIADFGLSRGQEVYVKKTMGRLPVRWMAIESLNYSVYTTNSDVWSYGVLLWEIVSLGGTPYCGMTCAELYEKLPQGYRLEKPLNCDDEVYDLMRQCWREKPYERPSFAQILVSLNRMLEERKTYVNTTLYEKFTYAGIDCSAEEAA
# Procedure: The pharmacological effect of the hawthorn extract was evaluated by detecting the amount of phosphorylated Tie2 protein. The phosphorylated Tie2 protein was quantified by means of an immunochemical method including an immunoassay. The method was performed as follows.
# At first, normal human umbilical vein endothelial cells (HUVECs) were cultured to confluent, inoculated into a 96-well plate at 2.0×10^4 cells/0.1 mL/well, and then cultured over night in a low-serum growth medium for vascular endothelial cells (HUMEDIA-EG2, product of KURABO INDUSTRIES LTD.) Next, the low-serum growth medium was replaced by 0.1 mL of a basal medium for vascular endothelial cells (HUMEDIA-EB2, product of KURABO INDUSTRIES LTD.) at 3 hours before cell stimulation (addition of test samples), and the post-cultured HUVECs were again cultured therein. […] After completion of the incubation, the amount of phosphorylated Tie2 and the total amount of Tie2 in the cells were measured by the immunoassay kit (HUMAN PHOSPHO-TIE2 (Y992) IMMUNOASSAY, product of R&D Systems) according to a manufacturer's protocol to thereby calculate the ratio of the amount of phosphorylated Tie2 to the total amount of Tie2.
# Similarly, the ratio of the amount of phosphorylated Tie2 to the total amount of Tie2 was calculated in the case of using dimethyl sulfoxide (DMSO) as a negative control. […]
Molecule,"Number of vascular branching ([1]; 50 μM, Means ± S.E., n = 3)","inhibition at 50 µM ([1]; Homo sapiens, read-out: Angiogenesis inhibitory rate (%))","Activation rate of Tie2 (%) ([2]; 0.5 μg/mL, 10 min, negative control DMSO = 100, Means ± S.E., n = 4)","Tie2 activating effect (immunoassay), in words ([2]; immunoassay kit)"
Cc1ccc(C(=O)Nc2ccc(S(=O)(=O)O)c3cc(S(=O)(=O)O)cc(S(=O)(=O)O)c23)cc1NC(=O)c1cccc(NC(=O)Nc2cccc(C(=O)Nc3cc(C(=O)Nc4ccc(S(=O)(=O)O)c5cc(S(=O)(=O)O)cc(S(=O)(=O)O)c45)ccc3C)c2)c1 [Suramin],30.0 ± 4.0,70.8%,,
B1,,,130.2 ± 8.3 %,verified to be phosphorylated and thus activated
